Here are results for one compound from patent US20020155172A1, “Methods and compounds for decreasing cell toxicity or death” (priority 2000, published 2002).

Molecules are shown by their SMILES.

For test [1], the system named is GST-Q19, GST-Q62, and GST-Q81. The test is described as follows: Chemical absorption assay, polyglutamine repeat length. The class given is binding. Conditions: 10 μg/ml Congo red in PBS; equal protein concentrations. The procedure: FIG. 6A is a graph of the percent of binding of Congo red to expanded polyglutamine repeats Q81, Q62, and Q19.
To determine if Congo red and its derivatives directly bind to expanded polyglutamine aggregates, we designed a chemical absorption assay. This assay measures the remaining Congo red in the supernatant after incubating the supernatant with GST-tagged polyglutamine beads, and removing the GST-polyglutamine beads by centrifugation. This assay was carried out as follows. Recombinant protein GST-Q19, GST-Q62, and GST-Q81 (containing 19, 62, and 81 polyglutamines, respectively) was purified from E. coli by glutathione beads. After several washes with PBS containing protease inhibitors, the beads were allowed to settle to the bottom of the tube at 24° C. for 10 minutes. The polyglutamine-bound beads were aliquoted and diluted with two volumes of 10 μg/ml of Congo red in PBS. The beads were mixed and centrifuged at 15,000 rpm for 2 minutes and the supernatant was removed and diluted 1:100. The percentage absorbance of the compound remaining in the supernatant after absorption with the GST-polyQ beads was then detected. In addition, Congo red- or PBS-only treated polyglutamine polypeptide bead pellets were washed three times with 100 volumes of PBS and then the protein was separated by 12% polyacrylamide gels and immunoblotted as mentioned above. […]

For test [2], the system named is Q79-Q79 interaction (Q79-ECFP/EYFP-Q79). Nature of the test: FRET-Q79 assay. The format is biochemical. Conditions: aggregates treated with 100 Congo red; 488 nm excitation, 527 nm emission. From the text: To rule out the possibility that Congo red merely disrupts large polyglutamine aggregates without affecting oligomeric polyglutamine interaction that may be invisible to fluorescence microscopy, we designed a FRET-Q79 assay. In this assay, the expression constructs EYFP-Q79 (enhanced yellow fluorescent protein fused to a polypeptide containing 79 polyglutamines) and Q79-ECFP (enhanced cyan fluorescent protein fused to a polypeptide containing 79 polyglutamines) were co-transfected into HeLa cells. The EYFP-HAQ79 was made by ligation of a SacI/Notl digested insert from HA-Q79 CMX (Sanchez et al., 1999, supra) into the plasmid CFP-C1, described by Sanchez et al. (supra) after Sac1 digestion and blunting. […]
The lysates were passed through a needle to ensure release of polyglutamine inclusions from the nuclei. […] The fluorescence resonance energy transfer (FRET) was determined from polyglutamine oligomers formed in Q79-ECFP/EYFP-Q79 expressing cells upon addition of PBS or Congo red. Specifically, the interaction of the tagged Q79 polypeptides was detected by immunofluorescence at 488 nm excitation and 527 nm emission for FRET using a Wallach plate reader, and the ratio of the immunofluorescence was determined. Immunofluorescence levels were also detected for each ECFP and EYFP independent of the effect of Congo red on fluorescence emission wavelengths.

In a further test the test system is HD transgenic mice (R62). Nature of the test: Fasting glucose levels in blood. The class given is in vivo. Conditions: 6 hours of fasting, intraperitoneal delivery. From the text: FIG. 10B is a table showing the effect of intraperitoneal delivery of Congo red or PBS (vehicle) on fasting glucose levels in wild-type (WT) or HD transgenic mice.
(§1) In addition, the ability of Congo red to inhibit the formation as well as to disrupt preformed polyglutamine oligomers allowed us to examine the role of polyglutamine aggregates in neuronal dysfunction and degeneration characteristic of polyglutamine expansion diseases. In these studies, we used the animal model of Huntington's disease (R62), which expresses the truncated form of huntingtin with 139 CAG repeats Mangiarini et al. (supra). We took advantage of our finding that in addition to inhibiting polyglutamine oligomerization, Congo red also disrupts pre-formed oligomers, thus allowing assessment of the impact of Congo red on disease progression after formation of polyglutamine aggregates and the onset of symptoms. R62 transgenic mice and CBAxC57B1/6 F1 wild type littermates were obtained from Jackson Laboratories (Bar Harbor, Me.) at the age of five weeks. […]
R62 mice also develop severe diabetes due to the presence of polyglutamine aggregates in the pancreas. […] The levels of glucose in the blood after 6 hours of fasting were measured from the serum using the Accu-Check strip kit (Roche, Co.).

A further test has as its system R62 mice. Nature of the test: Rotarod motor performance, second study. The class given is in vivo. Particulars: 10 rpm, maximum 210 seconds.
Text: FIG. 10F is a graph of the effect of PBS (vehicle; delivered intraperitoneally (IP)) or Congo red, infused intraperitoneally (IP), by intracerebroventricular cannula (ICV) implanted into the predetermined coordinates on the left ventricle, or by both routes, on motor performance, as assessed by latency to fall measurements using a rotorod.
as §1, with “symptoms.” for “symptoms. R62 transgenic mice and CBAxC57B1/6 F1 wild type littermates were obtained from Jackson Laboratories (Bar Harbor, Me.) at the age of five weeks.”
The initial abnormal neurological signs of R62 mice include dyskinesia of the hindlimbs when mice were suspended by the tail, and irregular gait. […] The effect of Congo red on motor performance in R62 mice was also assessed by rotarod studies. […]

As for `Nc1c(/N=N/c2ccc(-c3ccc(/N=N/c4cc(S(=O)(=O)O)c5ccccc5c4N)cc3)cc2)cc(S(=O)(=O)O)c2ccccc12` [Congo red, diphenyldiazo-bis-alpha-napthylaminesulfonate], in test [1], the “affinity for polyglutamine repeats Q81 or Q62 compared to Q19” value is “significantly higher affinity for expanded polyglutamine repeats that were 81 or 62 polyglutamines in length”. For the same compound, the FRET ratio entry in test [2] is “significantly reduced”. In addition, the “fasting glucose levels in blood” value in the test on HD transgenic mice (R62) is listed as “reduced the fasting glucose levels in blood”. Further, the “motor performance on rotarod” value in the test with R62 mice is listed as “preserved”.
